{"source": "patent US20200397965A1", "about": "“METHOD AND SYSTEM FOR […] MONOXIDE (CO) ADMINISTRATION TO EX-VIVO FLUIDS” (Julius-Maximilians-Universitaet Wuerzburg, priority 2018, published 2020)", "assay": "ICP-MS analysis for molybdenum in harvested organs and blood after ECCORS CO delivery in veno-arterial ECMO", "assay_type": "in vivo, landrace-hybrid pigs", "details": "swine on ECMO with ECCORS, Beck1 injected into FeCl3 secondary circuit behind silicone membrane", "method": "After obtaining consent by Regierungspraesidium Freiburg, seven landrace-hybrid pigs (weight 52±2 kg) were anesthetized (continuous infusion of propofol, fentanyl and cisatracurium), mechanically ventilated and monitored with electrocardiogram, pulse-oximetry and invasive blood pressure measurement by cannulating the carotid and pulmonary artery. Instrumentation with veno-arterial ECMO (extracorporeal membrane oxygenation) was carried out in a sterile technique: Venous access was achieved by ultrasound-guided cannulation of femoral vein (21 French HLS cannula, Maquet, Rastatt, Germany), while arterial inflow into the femoral artery was established using 17 French HLS cannula from Maquet, (Rastatt, Germany). The ECMO circuit (primary circuit) was then set-up using a customary centrifugal pump head (Revolution 5, Sorin, Rome, Italy), an oxygenator (EOS ECMO, Sorin, Rome, Italy), and 3/8” tubing for interconnection. The system was regulated using a modified console (core element: SCP-Console, Sorin, Rome, Italy).\nThe ECCORS was then integrated in line with the oxygenator into the primary ECMO circuit. A commercially available PDMSXA-1.0 silicone membrane module from PermSelect (AnnArbor, II) served as core functional element of the ECCORS. […]\nTissue was analyzed for CO effects and residual CORM constituents in the harvest organs and blood using ICP-MS analysis for molybdenum. […]"}
{"substance": "Mo(CO)3(CNCH2COOH)3 [CORM]", "values": [{"measurement": "toxic components of CORM / transition metals found in tissue or blood", "value": "no transition metals can be found in the tissue or blood"}]}
